Measurements from patent publication EP2271935B1, “METHOD AND KIT FOR THE EX VIVO EVALUATION OF THE RESPONSE OF A TUMOR TO CONDITIONS TO BE TESTED” (Universität Leipzig, priority 2008, dated 2009).

Test system: colonies of epithelial cells of head and neck squamous carcinoma
Experiment: ex vivo colony formation assay of collagenase-digested tumor samples, epithelial colonies counted after cytokeratin staining
Format: cell-based, human
Details: for Range from / Range to: concentrations with log-linear relation to response; for Range from / Range to / Cut-off concentrations Sample 1 / Cut-off concentrations Sample 2 / Cut-off concentrations Sample 3 / IC50 Sample 1 / IC50 Sample 2 / IC50 Sample 3: docetaxel (TPL = 0.55 µmol/l), 72 h
Procedure: Thereafter the tumors which usually have a size of about 0.1 to 1 ml were mechanically disintegrated by mincing to tissue pats of about 0.1 to 10 mm^3 and immersed each in 30 ml of pre-warmed riboflavin-free RPMI 1640 medium without phenol red and containing 14.5 mmol/l HEPES, 13.5 mmol/l NaHCO3, stabilized glutamine, 10% (v/v) fetal calf serum, the antibiotics penicillin, streptomycin and amikacin, as well as the antimycotic nystatin. The tumor cells were always handled at room temperature or warmer and never exposed to light other than the light of a sodium discharge lamp with an emission wavelength of 589 nm. Immediately after mechanical disintegration 120 U/ml collagenase type IV of Clostridium histolyticum (EC 3.4.24.3, type IV) were added and the mixture incubated for 16 h at 36.5°C in brown glass bottles in an incubator. To ensure optimal incubation conditions, the CO2 concentration therein was constantly kept at 3.5% and relative humidity at 95%. Following enzymatic disintegration by collagenase the digest was centrifuged for 10 min at 1200 rpm, the resulting pellets were carefully re-suspended in fresh culture medium supplemented as described but without collagenase. […] Ex-vivo testing was performed 72 h using the same culture conditions as during the collagenase digest.
After 72 hours of incubation, the wells were rinsed twice with phosphate buffered saline, pH 7.8, and the adherent cells and cell colonies were fixed with ice-cold 90% methanol for 10 min. Fixed specimens were exposed for 5 min to PBS/ 0.1% Tween-20® (Polysorbate 20) before preincubation with 1% serum in PBS/ 0.1% Tween-20 for 45 min, followed by overnight incubation at 4°C with the primary antibody (anti-cytokeratin; SantaCruz sc-8018, C11) diluted 1:400 in PBS/ 0.1% Tween-20 supplemented with 0.2 % serum. After three rinses for 10 min each with PBS/ 0.2 % Serum/ 0.1% Tween-20, specimens were incubated for another 2 h at room temperature in the dark with the secondary antibody (anti-mouse IgG coupled with Cy2 or Cy3 fluorescence dye, Jackson ImmunoResearch, Cambs, UK) in a 1:400 dilution in PBS/ 0.2 % Serum/ 0.1 % Tween-20 followed by three rinses with PBS/ 0.2 % Serum/ 0.1 % Tween-20, and a final rinse with distilled water for 2 min. The test plate was air dried, and fluorescence signals were imaged with the Zeiss Axiovert 200M inverted fluorescence microscope (Zeiss, Jena, Germany) using Zeiss filter sets 44 and 43HE for Cy2 and Cy3, respectively. The evaluation of the colonies is possible using every given fluorescence microscope but is eased by the use of dedicated filter sets. […] The test is utilized by separately counting of colonies of different types (stained epithelial, unstained stromal cells), the numbers of colonies in the different treatments (e.g. doses of radiation or concentrations of chemotherapeutics) are recorded and kept for further analysis.
(§1) Freshly resected probes of head and neck squamous carcinoma of 14 untreated patients were investigated and treated if not stated otherwise as described in example 1. Three fragments were each excised from different tumor areas, weighed, and treated with collagenase as outlined in Example 1.
1.5 mg of tumor was applied to a well.
as §1, with “Example 1. Collagenase digests were exposed to concentrations in the range from 0.5- to 32-fold the tolerated plasma levels (TPL) of docetaxel: (TPL = 0.55 µmol/l).” for “Example 1.”

For CC(=O)O[C@@]12CO[C@@H]1C[C@H](O)[C@@]1(C)C(=O)[C@H](O)C3=C(C)[C@@H](OC(=O)[C@H](O)[C@@H](NC(=O)OC(C)(C)C)c4ccccc4)C[C@@](O)([C@@H](OC(=O)c4ccccc4)[C@H]21)C3(C)C [docetaxel], the Range from (Tumor-No. 1) was 2.0 n-fold TPL, the “Range to” value (Tumor-No. 1) was 8.0 n-fold TPL and the Range from (Tumor-No. 2) was 0.5 n-fold TPL. The “Range to” value (Tumor-No. 2) was 32.0 n-fold TPL, the Range from (Tumor-No. 3) was 2.0 n-fold TPL and the “Range to” value (Tumor-No. 3) was 32.0 n-fold TPL. For the same compound, the Range from (Tumor-No. 4) was 4.0 n-fold TPL, the “Range to” value (Tumor-No. 4) was 32.0 n-fold TPL and the Range from (Tumor-No. 5) was 0.5 n-fold TPL. The “Range to” value (Tumor-No. 5) was 32.0 n-fold TPL, the Range from (Tumor-No. 6) was 2.0 n-fold TPL and the “Range to” value (Tumor-No. 6) was 32.0 n-fold TPL. The Range from (Tumor-No. 7) was 2.0 n-fold TPL, the “Range to” value (Tumor-No. 7) was 32.0 n-fold TPL and the Range from (Tumor-No. 8) was 1.0 n-fold TPL. For the same compound, the “Range to” value (Tumor-No. 8) was 32.0 n-fold TPL, the Range from (Tumor-No. 9) was 0.5 n-fold TPL and the “Range to” value (Tumor-No. 9) was 32.0 n-fold TPL. For the same compound, the “effect on number of epithelial colonies at low concentrations” value (concentrations ≤ TPL, seven tumors (No. 2, 3, 4, 5, 6, 8 and 9)) was “hormesis”, the “Cut-off concentrations Sample 1” value (Tumor-No. 1) was 8 n-fold TPL and the “Cut-off concentrations Sample 2” value (Tumor-No. 1) was 8 n-fold TPL. For the same compound, the “Cut-off concentrations Sample 3” value (Tumor-No. 1) was 8 n-fold TPL, the “IC50 Sample 1” value (Tumor-No. 1) was 4.565 n-fold TPL and the “IC50 Sample 2” value (Tumor-No. 1) was 4.718 n-fold TPL. For the same compound, the “IC50 Sample 3” value (Tumor-No. 1) was 5.040 n-fold TPL, the “Cut-off concentrations Sample 1” value (Tumor-No. 2) was “X (not more than 5 colonies at most have appeared at the highest dose rate)” and the “Cut-off concentrations Sample 2” value (Tumor-No. 2) was “X (not more than 5 colonies at most have appeared at the highest dose rate)”. The “Cut-off concentrations Sample 3” value (Tumor-No. 2) was “X (not more than 5 colonies at most have appeared at the highest dose rate)”, the “IC50 Sample 1” value (Tumor-No. 2) was 1.486 n-fold TPL and the “IC50 Sample 2” value (Tumor-No. 2) was 0.579 n-fold TPL. For the same compound, the “IC50 Sample 3” value (Tumor-No. 2) was 1.157 n-fold TPL, the “Cut-off concentrations Sample 1” value (Tumor-No. 3) was “X (not more than 5 colonies at most have appeared at the highest dose rate)” and the “Cut-off concentrations Sample 2” value (Tumor-No. 3) was “X (not more than 5 colonies at most have appeared at the highest dose rate)”. The “Cut-off concentrations Sample 3” value (Tumor-No. 3) was “X (not more than 5 colonies at most have appeared at the highest dose rate)”, the “IC50 Sample 1” value (Tumor-No. 3) was 16.404 n-fold TPL and the “IC50 Sample 2” value (Tumor-No. 3) was 10.711 n-fold TPL. The “IC50 Sample 3” value (Tumor-No. 3) was 19.173 n-fold TPL, the “Cut-off concentrations Sample 1” value (Tumor-No. 4) was “XX (more than 5 colonies have appeared at the highest dose rate)” and the “Cut-off concentrations Sample 2” value (Tumor-No. 4) was “X (not more than 5 colonies at most have appeared at the highest dose rate)”. For the same compound, the “Cut-off concentrations Sample 3” value (Tumor-No. 4) was “XX (more than 5 colonies have appeared at the highest dose rate)”, the “IC50 Sample 1” value (Tumor-No. 4) was 27.819 n-fold TPL and the “IC50 Sample 3” value (Tumor-No. 4) was 23.393 n-fold TPL. The “Cut-off concentrations Sample 1” value (Tumor-No. 5) was “X (not more than 5 colonies at most have appeared at the highest dose rate)”, the “Cut-off concentrations Sample 2” value (Tumor-No. 5) was “XX (more than 5 colonies have appeared at the highest dose rate)” and the “Cut-off concentrations Sample 3” value (Tumor-No. 5) was “X (not more than 5 colonies at most have appeared at the highest dose rate)”. For the same compound, the “IC50 Sample 1” value (Tumor-No. 5) was 3.891 n-fold TPL, the “IC50 Sample 3” value (Tumor-No. 5) was 9.987 n-fold TPL and the “Cut-off concentrations Sample 1” value (Tumor-No. 6) was “X (not more than 5 colonies at most have appeared at the highest dose rate)”. For the same compound, the “Cut-off concentrations Sample 2” value (Tumor-No. 6) was “X (not more than 5 colonies at most have appeared at the highest dose rate)”, the “Cut-off concentrations Sample 3” value (Tumor-No. 6) was “X (not more than 5 colonies at most have appeared at the highest dose rate)” and the “IC50 Sample 1” value (Tumor-No. 6) was 8.208 n-fold TPL. The “IC50 Sample 2” value (Tumor-No. 6) was 6.690 n-fold TPL, the “IC50 Sample 3” value (Tumor-No. 6) was 8.404 n-fold TPL and the “Cut-off concentrations Sample 1” value (Tumor-No. 7) was 32 n-fold TPL. The “Cut-off concentrations Sample 2” value (Tumor-No. 7) was 32 n-fold TPL, the “Cut-off concentrations Sample 3” value (Tumor-No. 7) was 32 n-fold TPL and the “IC50 Sample 1” value (Tumor-No. 7) was 3.616 n-fold TPL. The “IC50 Sample 2” value (Tumor-No. 7) was 3.629 n-fold TPL, the “IC50 Sample 3” value (Tumor-No. 7) was 2.692 n-fold TPL and the “Cut-off concentrations Sample 1” value (Tumor-No. 8) was 32 n-fold TPL. For the same compound, the “Cut-off concentrations Sample 2” value (Tumor-No. 8) was 32 n-fold TPL, the “Cut-off concentrations Sample 3” value (Tumor-No. 8) was “X (not more than 5 colonies at most have appeared at the highest dose rate)” and the “IC50 Sample 1” value (Tumor-No. 8) was 6.709 n-fold TPL. The “IC50 Sample 3” value (Tumor-No. 8) was 5.282 n-fold TPL, the “Cut-off concentrations Sample 1” value (Tumor-No. 9) was “X (not more than 5 colonies at most have appeared at the highest dose rate)” and the “Cut-off concentrations Sample 2” value (Tumor-No. 9) was “X (not more than 5 colonies at most have appeared at the highest dose rate)”. For the same compound, the “Cut-off concentrations Sample 3” value (Tumor-No. 9) was “X (not more than 5 colonies at most have appeared at the highest dose rate)”, the “IC50 Sample 1” value (Tumor-No. 9) was 6.964 n-fold TPL and the “IC50 Sample 2” value (Tumor-No. 9) was 7.495 n-fold TPL.
